In US20070178523A1, “Novel druggable regions in set domain proteins, and methods of using the same” (Emory University, priority 2002, published 2007):
Entries after “also recorded” stand apart in the source; their conditions may differ.

Tests used:
[1] = molecular target: T1, DIM-5 (Neurospora crassa, UniProt Q8X225); conditions: when EDTA completely abolished DIM-5 activity
Experimental: To remove zinc bound to EDTA, the protein was either dialyzed (Exp1) or subjected to gel filtration chromatography (Exp2) against 20 mM glycine (pH 9.8), 5% glycerol, 0.5 mM DTT and 1 mM EDTA.
One sample of untreated and two samples of EDTA treated DIM-5 protein (about 2 ml of 2 mg/ml each) was analyzed for the presence of 20 elements on a Thermo Jarrell-Ash Enviro 36 ICAP analyzer at the Chemical Analysis Laboratory of the University of Georgia at Athens. In order to calculate the molar ratio of Zn to protein, the precise concentration of the untreated DIM-5 protein was determined by amino acid analysis (averaging two independent measurements) performed at the Keck Facilities at Yale University. The extinction coefficient (29,559 M^−1 cm^−1) derived from the amino acid analysis was used to estimate the protein concentration of the EDTA-treated samples.

[2] = molecular target: T1, DIM-5; test: AdoMet-binding assay by UV crosslinking; parameters: A segment of the wild-type dim-5 ORF, including amino acid residues 17-318, was amplified; GST (N, cleaved yes); made in house; host or cells: E. coli BL21(DE3) Codon plus RIL carrying pXC379 (pGEX2T); species or system N. crassa; conditions: incubation of metal chelator with DIM-5 protein
Experimental: Twenty μl of purified DIM-5 protein (2-5 μg) was incubated with 0.5 μCi of [methyl-^3H]AdoMet (78 Ci/mmol, NEN NET155H) overnight at 4° C. Samples were added to a 96-well plate on ice and placed 8 cm from an inverted UV transilluminator (VWR, 302 nm) for 1 hr. The protein was then separated by SDS-PAGE, stained with Coomassie and subjected to fluorography.

[3] = molecular target: T1, DIM-5; test: Methyl transfer (HKMT) activity assay; format: biochemical, N. crassa; parameters: A segment of the wild-type dim-5 ORF, including amino acid residues 17-318, was amplified; GST (N, cleaved yes); made in house; host or cells: E. coli BL21(DE3) Codon plus RIL carrying pXC379 (pGEX2T); conditions: for DIM-5 activity after incubation with metal chelator: incubation of metal chelator with DIM-5 protein
Experimental: The activity of the DIM-5 was assayed in a 20 μl reaction containing 50 mM glycine (pH 9.8), 2 mM DTT, 40-80 μM unlabelled AdoMet (Sigma), 0.5 μCi [methyl-^3H]AdoMet (78 Ci/mmol, NEN NET155H), 0.25-0.5 μg of DIM-5 protein, and 2-5 μg histones (calf thymus histones Sigma H4524, Roche 223565, or recombinant chicken erythrocyte histones, a gift from Dr. V. Ramakrishnan). The reaction was incubated at room temperature for 10-15 min and methylation was analyzed either by SDS-PAGE and fluorography, or by precipitation with 20% TCA, filtration (Milipore GF/F filter), washing and liquid scintillation counting. Under these conditions, DIM-5 activity was linearly related to reaction time and amount of enzyme and AdoMet and histone were saturating. For some reason, the relatively crude Sigma H4524 histone preparations generally gave 2-4 fold higher incorporation than either the Roche preparations or the recombinant histones.

T1 sequence (Q8X225 30-331): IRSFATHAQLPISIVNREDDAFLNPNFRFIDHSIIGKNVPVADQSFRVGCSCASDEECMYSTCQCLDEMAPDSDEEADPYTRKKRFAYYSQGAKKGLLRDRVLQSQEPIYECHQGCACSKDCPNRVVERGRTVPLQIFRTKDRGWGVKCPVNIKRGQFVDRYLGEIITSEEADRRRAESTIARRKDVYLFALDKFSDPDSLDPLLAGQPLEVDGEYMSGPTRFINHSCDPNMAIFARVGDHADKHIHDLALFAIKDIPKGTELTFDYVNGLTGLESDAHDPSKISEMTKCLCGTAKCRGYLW

O=C(O)CN(CCN(CC(=O)O)CC(=O)O)CC(=O)O [EDTA]
zinc ions retained by the protein [1]: ~2.9 zinc ions
AdoMet-binding [2]: significantly reduced
HKMT activity ([3]; DIM-5 incubated with 20 mM EDTA for 2 days): no longer detectable
DIM-5 activity after incubation with metal chelator [3]: inhibited its activity; also recorded: completely abolished

[Cl-].[Na+] [NaCl]
inhibition of DIM-5 activity ([3]; 100 mM NaCl): about 95%

c1cnc2c(c1)ccc1cccnc12 [phenanthroline, 1,10-phenanthroline]
AdoMet-binding [2]: significantly reduced
DIM-5 activity after incubation with metal chelator [3]: inhibited its activity
